Source: ChEMBL document CHEMBL5661955, “ASAP - In vitro cytotoxicity” (2024)
“And” between values parts separate entries of the source, which are not always exact repeats. Identical values can stand only once.

Columns and labels:
[1] = (§1) Functional CPE-based assay to measure dose dependent changes in cell viability from drug treatment in Vero E6 miRFP670 cells. Cells are treated with antiviral candidates that have been serially diluted. Cytotoxicity is reported via analysis of MTS assays in uninfected cells. The assay has been performed by KU Leuven.; format: toxicity, Vero C1008; conditions: chlorocebus sabaeus, Vero E6 miRFP670 cells
[2] = Functional assay to measure dose dependent changes in cell viability from drug treatment in Vero E6 miRFP670 cells (cotreated with P-gp inhibitor, CP100356) that are infected with Dengue virus type 2 New Guinea C. […] Cytotoxicity is reported via via analysis of DAPI count using high-content imager. The assay has been performed by KU Leuven.; format: toxicity, cell-based, Vero C1008; conditions: chlorocebus sabaeus, with CP100356 (P-gp inhibitor, concentration not stated); p-gp concentration 500 nM
[3] = Functional metabolic assay to measure dose dependent changes in cell viability from drug treatment in Vero E6/TMPRSS2 cells (cotreated with P-gp inhibitor, Elacridar). […] Cytotoxicity is reported via measuring absorbance and analysis of MTT/MTS assays in uninfected cells. The assay has been performed by Icahn School of Medicine at Mount Sinai.; format: toxicity, cell-based, VeroE6/TMPRSS2; conditions: chlorocebus sabaeus, p-gp concentration 2 uM
[4] = as §1, with “miRFP670 cells (cotreated with P-gp inhibitor, CP100356).” for “miRFP670 cells.”; format: toxicity, Vero C1008; conditions: chlorocebus sabaeus, Vero E6 miRFP670 cells, with CP100356 (P-gp inhibitor, concentration not stated); p-gp concentration 500 nM
[5] = Vero E6/TMPRSS2 cells, with Elacridar (P-gp inhibitor, concentration not stated)

Row | SMILES | CC50 [1] [µM] | CC50 [2] [µM] | CC50 [3, 5] [µM] | CC10 ([3]; veroe6/tmprss2) | CC50 ([3]; veroe6/tmprss2) [µM] | CC50 [4] [µM]
1 | NCc1cc(NC(=O)c2cc(Cl)cc(NC(=O)OCc3ccccc3)c2)cc([C@@H]2C[C@H]2C(=O)O)c1 | 9.99 | 21.8 |  |  |  | 
2 | O=C(Nc1cc(Cl)cc(C(=O)Nc2cccc([C@H]3C[C@H]3C(=O)O)c2)c1)OCc1ccccc1 | > 50 |  |  |  |  | 
3 | NCc1cccc(NC(=O)[C@H](NC(=O)OCc2ccccc2)c2ccc(Br)c(Cl)c2)c1 | 10 | 13.4 |  |  |  | 
4 | O=C(Nc1ccc2c(c1)CNC2)c1cc(Br)cc2ccccc12 | 11.4 |  |  |  |  | 
5 | O=C(NS(=O)(=O)C1CC1)c1cc(Cl)ccc1NS(=O)(=O)c1ccc(Oc2ccccc2Cl)cc1 | > 50 | > 50 |  |  |  | 
6 | O=C(Nc1ccc(C2CNC2)cc1)c1cc(Cl)cc2[nH]ncc12 | > 50 | > 50 |  |  |  | 
7 | O=C(Nc1ccc2c(c1)CNC2)c1cc(Cl)cc(C2CC2)c1 | 10.5 | 11.2 | > 50 | 0.136 µM |  | 
8 | O=C(Nc1ccc2c(c1)CNCCC2)c1cc(Cl)cc2[nH]ncc12 | 1.42 | 2.18 | > 50 | < 0.023 µM |  | 
9 | O=C(NCC1CC1)c1cc(Cl)ccc1NS(=O)(=O)c1ccc(Oc2ccccc2Cl)cc1 | 5.46 |  |  |  |  | 
10 | CC(C)c1cc(Br)cc(C(=O)Nc2ccc3c(c2)CNC3)c1 | 11.5 |  |  |  |  | 
11 | O=C(Nc1ccc2c(c1)CNC2)c1cccc2[nH]ncc12 | 11.5 | 15.4 | > 50 | > 50 µM |  | 
12 | CC(C)(C)NC(=O)[C@H](Nc1cccc(-c2nn[nH]n2)c1)c1cc(Cl)cc(NC(=O)OCc2ccccc2)c1 | > 50 | 2.78 | > 50 | > 50 µM |  | 
13 | O=C(Nc1cc(Cl)cc([C@H]2C[C@@H]2c2cccc(C3CCNCC3)c2)c1)OCc1ccccc1 | 1.23 | 3.44 |  |  |  | 
14 | O=C(Nc1cccc(-c2nnn[nH]2)c1)c1cc(Cl)cc2[nH]ncc12 | > 50 |  |  |  |  | 
15 | CNC(=O)[C@H](Nc1cc(CN)cc(C(=O)O)c1)c1cc(Cl)cc(C2CC2)c1 | > 50 | > 50 |  |  |  | 
16 | N#C[C@H](Nc1cncc(-c2nn[nH]n2)c1)c1cc(Cl)cc(NC(=O)OCc2ccccc2)c1 | > 50 |  |  |  |  | 
17 | O=C(Nc1cc(Cl)cc(C(=O)Nc2ccc3c(c2)CNCC3)c1)OCc1ccccc1 | 2.85 | 3.27 |  |  |  | 
18 | CC(=O)NCc1cccc(NC(=O)c2cc(Cl)cc(NC(=O)OCc3ccccc3)c2)c1 | 38 |  |  |  |  | 
19 | O=C(Nc1cc(Cl)cc([C@H]2CN(Cc3ccccc3)C[C@@H]2c2cccc(-c3nn[nH]n3)c2)c1)OCc1ccccc1 | 12.5 | 12.3 | > 50 | 34.224 µM |  | 
20 | COc1ccc(S(=O)(=O)Nc2cc(F)c(Cl)cc2C(=O)NCC(C)C)cc1 | 4.25 |  |  |  |  | 
21 | NCc1cccc(NC(=O)c2cc(Cl)cc(C(N)=O)c2)c1 | > 50 | > 50 |  |  |  | 
22 | O=C(Nc1ccc2c(c1)CNC2)c1cc(Br)cc2[nH]c(-c3ccccc3)nc12 | 10.7 | 3.3 | 14.3 | 0.098 µM |  | 
23 | NCc1cccc(NC(=O)c2cc(Cl)cc3c2cnn3CC2CC2)c1 | 20.7 | 24.1 |  |  |  | 
24 | N[C@H]1Cc2ccc(NC(=O)c3cc(Cl)cc(NC(=O)OCc4ccccc4)c3)cc2C1 | 2.82 | 4.15 |  |  |  | 

Row | SMILES | CC50 [1] [µM] | CC50 [2] [µM] | CC50 [3, 5] [µM] | CC10 ([3]; veroe6/tmprss2) | CC50 ([3]; veroe6/tmprss2) [µM] | CC50 [4] [µM]
25 | O=C(O)COc1cccc(NC(=O)c2cc(Cl)cc(NC(=O)OCc3ccccc3)c2)c1 | > 50 |  | > 50 | > 50 µM |  | 
26 | O=C(Nc1ccc2c(c1)CNC2)c1cc(Cl)cc(-n2cccc2)c1 | > 50 | > 50 | 46.4 | 17.502 µM and 9.003 µM | 34.8 | 
27 | OCC#C[C@H](Nc1ccc2c(c1)CNC2)c1cc(Cl)cc2[nH]ncc12 | > 50 | > 50 |  |  |  | 
28 | O=C(Nc1cc(Cl)cc(C(=O)Nc2cccc(C3CCNCC3)c2)c1)OCc1ccccc1 | 5.29 | 11.8 | > 10 |  | 13.5 | 
29 | O=C(Nc1cc(Cl)cc([C@H]2[C@H](CO)[C@@H]2c2cccc(-c3nn[nH]n3)c2)c1)OCc1ccccc1 | > 50 |  |  |  |  | 
30 | COc1cc(-c2cc(Cl)cc(NC(=O)OCc3ccccc3)c2)c(OC)cc1CC(=O)O | 49.8 |  |  |  |  | 
31 | N#C[C@H](Nc1ccc2c(c1)CNC2)c1cc(Cl)cc2[nH]ncc12 | > 50 |  | > 50 | > 50 µM |  | 
32 | O=C(NC1CCCCC1)c1cc(Cl)ccc1NS(=O)(=O)c1ccc(Oc2ccccc2Cl)cc1 | 3.46 |  |  |  |  | 
33 | CC(C)c1nc2c(C(=O)Nc3ccc4c(c3)CNC4)cc(Br)cc2[nH]1 | 2.65 | 3.63 | 19.2 | 0.476 µM |  | 
34 | O=C(Nc1cccc(-c2nnn[nH]2)c1)c1cc(Cl)cc(C2CC2)c1 | > 50 |  |  |  |  | 
35 | Clc1ccc2[nH]cc(Cc3ccc(-c4nn[nH]n4)cc3)c2c1 | > 50 | 19.3 | > 50 | > 50 µM |  | 
36 | O=C(Nc1cc(Cl)cc(C(=O)NCc2ccc(-c3nnn[nH]3)cc2)c1)OCc1ccccc1 | > 50 | 3.21 | > 50 | > 50 µM |  | 
37 | COc1cccc(-c2ccc([C@@H](NC(=O)OCc3ccccc3)C(=O)Nc3cccc(CN)c3)cc2)c1 | 6.76 | 23.1 |  |  |  | 
38 | NCc1cccc(CCc2cc(Cl)cc(NC(=O)OCc3ccccc3)c2)c1 | 5.46 | 11.9 | 29.7 | 2.058 µM |  | 
39 | CC(C)Oc1ccc(S(=O)(=O)Nc2ccc(Cl)cc2C(=O)O)cc1 | > 50 |  |  |  |  | 
40 | NCc1cccc(NC(=O)[C@H](NC(=O)OCc2ccccc2)C2CCC(c3ccccc3)CC2)c1 (stereo partly specified) | 4.58 | 11.5 |  |  |  | 
41 | NCc1cccc(NC(=O)c2cc(Cl)cc(-n3cccc3)c2)c1 | 25.7 | > 50 | > 50 | > 50 µM |  | 
42 | C=CC[C@H](Nc1ccc(-c2nn[nH]n2)cc1)c1cc(Cl)cc(NC(=O)OCc2ccccc2)c1 | 46.2 | 10.7 |  |  |  | 
43 | CC(C)Cc1nc2c(C(=O)Nc3ccc4c(c3)CNC4)cc(Br)cc2[nH]1 | 0.623 | 0.864 | 20.9 | 0.569 µM |  | 
44 | O=C(Nc1cc(Cl)cc(-c2ccc3[nH]nc(C(=O)O)c3c2)c1)OCc1ccccc1 | > 50 | 13.6 |  |  |  | 
45 | NCc1cc(Cl)cc(C(=O)Nc2ccc3c(c2)CNC3)c1 | > 50 |  |  |  |  | 
46 | CN1Cc2ccc(NC(=O)c3cc(Cl)cc4[nH]ncc34)cc2C1 | > 50 |  |  |  |  | 
47 | O=C(O)c1cc(Cl)c(F)cc1S(=O)(=O)Nc1ccc(Oc2ccccc2Cl)cc1 | > 50 | > 50 |  |  |  | 
48 | CCNC(=O)Nc1cc(Cl)cc(C(=O)Nc2cccc(CN)c2)c1 | > 50 | > 50 |  |  |  | 

Row | SMILES | CC50 [1] [µM] | CC50 [2] [µM] | CC50 [3, 5] [µM] | CC10 ([3]; veroe6/tmprss2) | CC50 ([3]; veroe6/tmprss2) [µM] | CC50 [4] [µM]
49 | NCc1cccc(NC(=O)[C@@H](NC(=O)OCc2ccccc2)c2ccc(-c3cc4cccnc4s3)cc2)c1 | 34.7 | > 50 |  |  |  | 
50 | C=CC[C@H](Nc1cc(Cl)cc(NC(=O)OCc2ccccc2)c1)c1ccc(-c2nn[nH]n2)cc1 | 14.6 | 7.62 |  |  |  | 
51 | C=C1C[C@H](c2cc(Cl)cc(NC(=O)OCc3ccccc3)c2)[C@@H](c2cccc(-c3nn[nH]n3)c2)C1 | 5.72 | 7.56 |  |  |  | 
52 | CCOCCNC(=O)c1cc(Cl)ccc1NS(=O)(=O)c1ccc(Oc2ccccc2Cl)cc1 | 8.81 |  |  |  |  | 
53 | CC(C)OC(=O)Nc1cc(Cl)cc(C(=O)Nc2cccc(CN)c2)c1 | 20.5 | 4.99 | > 50 | < 0.023 µM |  | 
54 | COC(=O)c1cc(NC(=O)c2cc(Cl)cc(NC(=O)OCc3ccccc3)c2)cc(-c2nnn[nH]2)c1 | 35.2 |  | > 50 | > 50 µM |  | 
55 | CCNC(=O)Nc1cc(Cl)cc(C(=O)Nc2ccc3c(c2)CNCCO3)c1 | > 50 | 35.3 |  |  |  | 
56 | C[C@@]1(c2cccc(CN)c2)C[C@H]1c1cc(Cl)cc(NC(=O)OCc2ccccc2)c1 | 2.61 | 6.46 |  |  |  | 
57 | O=C(Nc1ccc2c(c1)CNC2)c1cc(Cl)cc2c1CCC2 | 18.4 |  |  |  |  | 
58 | CCCNC(=O)[C@H](Nc1cccc(-c2nn[nH]n2)c1)c1cc(Cl)cc(NC(=O)OCc2ccccc2)c1 | > 50 | > 50 |  |  |  | 
59 | CC(C)(C)c1cc(Br)cc(C(=O)Nc2ccc3c(c2)CNC3)c1 | 5.77 |  |  |  |  | 
60 | Cn1ncc2c(C(=O)Nc3ccc4c(c3)CNC4)cc(Br)cc21 | > 50 | > 50 |  |  |  | 
61 | O=C(Nc1cc(Cl)cc(-c2cccc3c(C(=O)O)cccc23)c1)OCc1ccccc1 | < 0.391 |  |  |  |  | 
62 | COc1cc(Br)cc(C(=O)Nc2ccc3c(c2)CNC3)c1 |  | 27.5 | > 50 | 4.817 µM |  | 47.5
63 | NCc1cc(/C=C/C(=O)O)cc(NC(=O)c2cc(Cl)cc(NC(=O)OCc3ccccc3)c2)c1 | > 50 | 15.7 |  |  |  | 
64 | NCc1cccc(NC(=O)c2cc(Cl)cc(C3CC3)c2)c1 | 46.6 |  |  |  |  | 
65 | O=C(Nc1ccc2c(c1)CNC2)c1cc(Br)cc2c1OCO2 | 23 |  |  |  |  | 
66 | O=C1Cc2c(cc(Br)cc2C(=O)Nc2ccc3c(c2)CNC3)N1 |  | 27.7 | > 50 |  |  | > 50
67 | NCc1cccc(NC(=O)c2cc(Cl)cc3[nH]ncc23)c1 | > 50 |  |  |  |  | 
68 | O=C(Nc1ccc2c(c1)CNCC2)c1cc(Cl)cc2[nH]ncc12 | > 50 |  |  |  |  | 
69 | O=C(NC[C@H]1CCCO1)[C@H](Nc1ccc2c(c1)CNC2)c1cc(Cl)cc(C2CC2)c1 |  | > 50 | > 50 | > 50 µM |  | 39.2
70 | CNC(=O)[C@H](Nc1cc(CN)cc(C(=O)O)c1)c1cc(Cl)cc(NC(=O)OCc2ccccc2)c1 | > 50 | > 50 |  |  |  | 
